Read-outs that look alike come from different tables or passages of the source.
Legend:
Assay in all cases: cells
LA1-5s [1] = system: LA1-5s; design: species or system neuroblastoma cell lines; 6 day growth-death assay, CyQuant Direct read-out, mid-point of growth window (DMSO to T0); conditions: Neuroblastoma cell, 144 h; CyQuant, 6 days; read-out: gIC50 CyQuant
Protocol: (§1) Cell line growth-death assays were performed as described, with a few modifications. Briefly, cells were seeded into 384-well or 96-well plates at a density optimized for 6 days of growth. The following day, T0 measurements were taken using CellTiter-Glo (CTG; Promega, Madison, WI), CellTiter-Fluor (Promega), or CyQuant Direct (Life Technologies), following the manufacturer’s instructions. Plates were read on an Envision (PerkinElmer, Waltham, MA), Safire 2 (Tecan, Durham, NC), or SpectraMax Gemini EM (Molecular Devices, Sunnyvale, CA) plate reader. […] Cells were incubated for 6 days and developed as described above. Results were plotted as a percentage of the T0 value, normalized to 100%, versus concentration of compound. A 4-parameter equation was used to generate concentration response curves. Growth IC50 (gIC50) values were calculated at the mid-point of the growth window (between DMSO and T0 values). Ymin-T0 values were calculated by subtracting the T0 value (100%) from the Ymin value on the curve, and are a measure of net population cell growth or death.

SK-N-AS [2] = system: SK-N-AS; design: species or system neuroblastoma cell lines; 6 day growth-death assay, CyQuant Direct read-out, mid-point of growth window (DMSO to T0); conditions: Homo sapiens, SK-N-AS, 144 h; CyQuant, 6 days; read-out: gIC50 CyQuant
Protocol: as §1

SK-N-BE(2) [3] = system: SK-N-BE(2); design: species or system neuroblastoma cell lines; 6 day growth-death assay, CyQuant Direct read-out, mid-point of growth window (DMSO to T0); conditions: Homo sapiens, SKNBE2, 144 h; CyQuant, 6 days; read-out: gIC50 CyQuant
Protocol: as §1

CHP-212 [4] = system: CHP-212; design: species or system neuroblastoma cell lines; 6 day growth-death assay, CyQuant Direct read-out, mid-point of growth window (DMSO to T0); conditions: Homo sapiens, CHP-212, 144 h; CyQuant, 6 days; read-out: gIC50 CyQuant
Protocol: as §1

LA1-5s [5] = system: LA1-5s; design: species or system neuroblastoma cell lines; 6 day growth-death assay, CellTiter-Fluor read-out, mid-point of growth window (DMSO to T0); conditions: Neuroblastoma cell, 144 h; CellTiter-Fluor, 6 days; read-out: gIC50 CellTiter-Fluor
Protocol: as §1

SK-N-AS [6] = system: SK-N-AS; design: species or system neuroblastoma cell lines; 6 day growth-death assay, CellTiter-Fluor read-out, mid-point of growth window (DMSO to T0); conditions: Homo sapiens, SK-N-AS, 144 h; CellTiter-Fluor, 6 days; read-out: gIC50 CellTiter-Fluor
Protocol: as §1

SK-N-BE(2) [7] = system: SK-N-BE(2); design: species or system neuroblastoma cell lines; 6 day growth-death assay, CellTiter-Fluor read-out, mid-point of growth window (DMSO to T0); conditions: Homo sapiens, SKNBE2, 144 h; CellTiter-Fluor, 6 days; read-out: gIC50 CellTiter-Fluor
Protocol: as §1

CHP-212 [8] = system: CHP-212; design: species or system neuroblastoma cell lines; 6 day growth-death assay, CellTiter-Fluor read-out, mid-point of growth window (DMSO to T0); conditions: Homo sapiens, CHP-212, 144 h; CellTiter-Fluor, 6 days; read-out: gIC50 CellTiter-Fluor
Protocol: as §1

CC(=O)N1c2ccc(-c3ccc(C(=O)O)cc3)cc2[C@H](Nc2ccc(Cl)cc2)C[C@@H]1C [I-BET726]
GI50 (LA1-5s [1]): 10 nM
GI50 (SK-N-AS [2]): 135 nM
GI50 (SK-N-BE(2) [3]): 80 nM
GI50 (CHP-212 [4]): 10 nM
GI50 (LA1-5s [5]): 25 nM
GI50 (SK-N-AS [6]): 130 nM
GI50 (SK-N-BE(2) [7]): 20 nM
GI50 (CHP-212 [8]): 30 nM

Source: publication PMC3751846, “BET Inhibition Silences Expression of MYCN and BCL2 and Induces Cytotoxicity in Neuroblastoma Tumor Models” (PLoS ONE, 2013)
